Experimental data published in patent US6727237B2, “Inhibitors of bacterial NAD synthetase” (priority 1998, dated 2004).

Tests used:
[1] = tested on: Staphylococcus epidermitis; test: Bacterial growth inhibition screen in LB media (absorbance 595 nm), percent inhibition; conditions: S. epidermitis
[2] = target: T1, bacterial NAD synthetase enzyme (Bacillus subtilis, UniProt P08164); test: biochemical; assay type: biochemical
T1 sequence (P08164 2-272 limits assumed): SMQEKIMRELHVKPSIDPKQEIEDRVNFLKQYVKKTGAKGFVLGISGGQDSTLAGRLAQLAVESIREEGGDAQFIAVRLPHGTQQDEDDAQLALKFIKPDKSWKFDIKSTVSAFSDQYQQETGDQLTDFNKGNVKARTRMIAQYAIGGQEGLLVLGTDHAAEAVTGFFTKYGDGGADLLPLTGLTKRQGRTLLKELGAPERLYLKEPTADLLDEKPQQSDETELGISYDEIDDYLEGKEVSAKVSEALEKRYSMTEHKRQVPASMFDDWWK

[3] = compound at 0.2 mM (Table 312B)
[4] = compound at 0.2 mM (Table 312A)

Row | Structure (SMILES) | % Inhibition ([1]; concentration screened 10 uM) [%] | also measured
1 | COc1ccc2c(ccn2CCCCOC(=O)c2ccc([N+](C)(C)C)cc2)c1 [Compound 780] | 4.78 | –
2 | CC(C)c1ccc2[nH]c(CCCCCCCCOC(=O)c3cccc(N(C)C)c3)cc2c1 [Compound 626] | – | % Inhibition ([1]; concentration screened 100 uM): 14.26%
3 | CC(C)c1ccc2[nH]c(CCCCCCCOC(=O)c3ccccc3-c3ccccc3)cc2c1 [Compound 631] | 12.19 | –
4 | O=C(OCCCCCCCCc1cc2cc(Oc3ccccc3)ccc2[nH]1)c1cccnc1 [Compound 686] | 22.14 | –
5 | CN(C)c1ccc(C(=O)OCCCCCCCCc2cc3cc(C(=O)c4ccccc4)ccc3[nH]2)cc1 [Compound 647] | – | % Inhibition ([1]; concentration screened 100 uM): 13.38%
6 | O=C(OCCCCCCCCc1cc2cc([N+](=O)[O-])ccc2[nH]1)C(c1ccccc1)c1ccccc1 [Compound 726] | 16.76 | –
7 | O=C(OCCCCCCCc1cc2cc(Oc3ccccc3)ccc2[nH]1)C(c1ccccc1)c1ccccc1 [Compound 658] | 1.43 | –
8 | O=C(OCCCCCCCCc1cc2cc(C(=O)c3ccccc3)ccc2[nH]1)c1ccncc1 [Compound 710] | 6.95 | –
9 | O=C(OCCCCc1cc2cc(Oc3ccccc3)ccc2[nH]1)c1cccnc1 [Compound 684] | 10.83 | –
10 | O=C(OCCCn1ccc2cc([N+](=O)[O-])ccc21)c1cccnc1 [Compound 855] | 49.58 | –
11 | CN(C)c1cccc(C(=O)OCCCCCCCc2cc3cc(C(=O)c4ccccc4)ccc3[nH]2)c1 [Compound 643] | 15.46 | –
12 | O=C(OCCCCc1cc2cc(C(F)(F)F)ccc2[nH]1)c1ccccc1-c1ccccc1 [Compound 612] | – | % Inhibition ([1]; concentration screened 100 uM): 10.24%
13 | O=C([O-])c1ccc[n+](CCCn2c(C(=O)O)cc3ccccc32)c1 [Compound 191] | 46.32 | –
14 | O=C(OCCCCCCCCc1cc2cc(C(=O)c3ccccc3)ccc2[nH]1)c1cccnc1 [Compound 680] | 22.48 | –
15 | CN(C)c1ccc(C(=O)OCCCCc2cc3cc(C(F)(F)F)ccc3[nH]2)cc1 [Compound 609] | – | % Inhibition ([1]; concentration screened 100 uM): 7.35%
16 | CC(=O)c1ccc2[nH]c(CCCCOC(=O)c3cccnc3)cc2c1 [Compound 690] | 10.01 | –
17 | CC(C)c1ccc2[nH]c(CCCCCCCOC(=O)c3ccncc3)cc2c1 [Compound 703] | 4.29 | –
18 | O=C(OCCCCCCCc1cc2cc(C(F)(F)F)ccc2[nH]1)C(c1ccccc1)c1ccccc1 [Compound 652] | 2.52 | –
19 | CC(=O)c1ccc2[nH]c(CCCCCCCCOC(=O)c3cccc(N(C)C)c3)cc2c1 [Compound 635] | – | % Inhibition ([1]; concentration screened 100 uM): 7.47%
20 | CN(C)c1cccc(C(=O)OCCCCc2cc3cc(C(=O)c4ccccc4)ccc3[nH]2)c1 [Compound 642] | – | % Inhibition ([1]; concentration screened 100 uM): 8.86%
21 | CC(=O)c1ccc2[nH]c(CCCCCCCCOC(=O)c3ccccc3-c3ccccc3)cc2c1 [Compound 641] | – | % Inhibition ([1]; concentration screened 100 uM): 8.10%
22 | c1ccc2[nH]c(CCCC[n+]3cccc4ccccc43)cc2c1 [Compound 391] | 5.29 | –
23 | CC(C)c1ccc2[nH]c(CCCCOC(=O)c3cccnc3)cc2c1 [Compound 687] | 14.44 | –
24 | O=C(OCCCCCCCCc1cc2cc(C(F)(F)F)ccc2[nH]1)c1cccnc1 [Compound 656] | 2.59 | –

Row | Structure (SMILES) | % Inhibition ([1]; concentration screened 10 uM) [%] | also measured
25 | COC(=O)c1ccc2c(ccn2CCC[n+]2cccc(C(=O)OC)c2)c1 [Compound 171] | 15.33 | –
26 | CC(C)c1ccc2[nH]c(CCCCCCCCOC(=O)c3cccnc3)cc2c1 [Compound 668] | 3.07 | –
27 | c1ccc(Oc2ccc3[nH]c(CCC[n+]4cccc5ccccc54)cc3c2)cc1 [Compound 456] | 3.69 | –
28 | O=C(OCCCCCCCc1cc2cc(Oc3ccccc3)ccc2[nH]1)c1ccccc1-c1ccccc1 [Compound 622] | 7.97 | –
29 | CN(C)c1ccc(C(=O)OCCCCCCCc2cc3cc(C(F)(F)F)ccc3[nH]2)cc1 [Compound 610] | 33.51 | –
30 | c1ccc(Oc2ccc3[nH]c(CCCCCC[n+]4cccc5ccccc54)cc3c2)cc1 [Compound 459] | 16.09 | –
31 | c1ccc(Oc2ccc3[nH]c(CCCCC[n+]4ccccc4)cc3c2)cc1 [Compound 350] | 7.59 | –
32 | C[n+]1cc(C(=O)OCCCCCCCCn2ccc3cc(OCc4ccccc4)ccc32)cc2ccccc21 [Compound 829] | 98.64 | –
33 | CN(C)c1cccc(C(=O)OCCCCCCCc2cc3cc(Oc4ccccc4)ccc3[nH]2)c1 [Compound 616] | 5.59 | –
34 | O=C(OCCCCCCCc1cc2cc(Oc3ccccc3)ccc2[nH]1)c1cccnc1 [Compound 661] | 39.31 | –
35 | O=C(OCCCCc1cc2cc(C(F)(F)F)ccc2[nH]1)C(c1ccccc1)c1ccccc1 [Compound 651] | – | % Inhibition ([1]; concentration screened 100 uM): 13.51%
36 | CC(=O)c1ccc2[nH]c(CCCCCCCOC(=O)c3cccc(N(C)C)c3)cc2c1 [Compound 634] | 10.08 | –
37 | CC(=O)c1ccc2[nH]c(CCCCOC(=O)c3cccc(N(C)C)c3)cc2c1 [Compound 633] | – | % Inhibition ([1]; concentration screened 100 uM): 5.53%
38 | O=C(OCCCCn1ccc2cc([N+](=O)[O-])ccc21)c1cnc2ccccc2c1 [Compound 830] | 42.99 | –
39 | O=C(OCCCCCCCCc1cc2cc(Oc3ccccc3)ccc2[nH]1)c1ccncc1 [Compound 701] | 3.88 | –
40 | CC(C)c1ccc2[nH]c(CCCCCCCCOC(=O)c3ccc(N(C)C)cc3)cc2c1 [Compound 629] | – | % Inhibition ([1]; concentration screened 100 uM): 6.66%
41 | CC(=O)c1ccc2[nH]c(CCCCCCCCOC(=O)c3cccnc3)cc2c1 [Compound 674] | 7.70 | –
42 | C[n+]1cc(C(=O)OCCCCn2ccc3cc(OCc4ccccc4)ccc32)cc2ccccc21 [Compound 825] | 83.13 | –
43 | CC(=O)c1ccc2[nH]c(CCCCOC(=O)C(c3ccccc3)c3ccccc3)cc2c1 [Compound 669] | – | % Inhibition ([1]; concentration screened 100 uM): 11.24%
44 | CN(C)c1cccc(C(=O)OCCCCc2cc3cc(C(F)(F)F)ccc3[nH]2)c1 [Compound 606] | – | % Inhibition ([1]; concentration screened 100 uM): 9.17%
45 | O=C(OCCCCc1cc2cc(C(=O)c3ccccc3)ccc2[nH]1)c1cccnc1 [Compound 693] | 14.37 | –
46 | CC(=O)c1ccc2[nH]c(CCCCCCCCOC(=O)C(c3ccccc3)c3ccccc3)cc2c1 [Compound 671] | – | % Inhibition ([1]; concentration screened 100 uM): 5.72%
47 | c1ccc2[nH]c(CCC[n+]3cccc4ccccc43)cc2c1 [Compound 390] | 5.92 | –
48 | CN(C)c1ccc(C(=O)OCCCCCCCCCn2ccc3cc([N+](=O)[O-])ccc32)cc1 [Compound 847] | 19.84 | –

Row | Structure (SMILES) | % Inhibition ([1]; concentration screened 10 uM) [%] | also measured
49 | COc1ccc2c(ccn2CCCCOC(=O)c2cc3ccccc3[n+](C)c2)c1 [Compound 820] | 65.74 | –
50 | Fc1cc(F)c2[nH]c(CCCCCCC[n+]3cccc4ccccc43)cc2c1 [Compound 412] | 7.73 | –
51 | CN(C)c1cccc(C(=O)OCCCCc2cc3cc(Oc4ccccc4)ccc3[nH]2)c1 [Compound 615] | – | % Inhibition ([1]; concentration screened 100 uM): 11.81%
52 | O=C(c1ccccc1)c1ccc2[nH]c(CCCCCCCCOC(=O)c3ccccc3-c3ccccc3)cc2c1 [Compound 650] | – | % Inhibition ([1]; concentration screened 100 uM): 7.73%
53 | CC(=O)c1ccc2[nH]c(CCCCCCCOC(=O)c3ccncc3)cc2c1 [Compound 706] | 6.68 | –
54 | CC(=O)N1CCN(c2ccc(OCCCCCCCCOC(=O)Cc3ccc(N(C)C)cc3)cc2)CC1 [Compound 1025] | – | % Inhibition [2, 3]: 15%
55 | O=C(OCCCCCCCCOc1ccc(C(=O)c2ccccc2)cc1)c1cccnc1 [Compound 1013] | – | % Inhibition [2, 3]: 29%
56 | Cc1ccc2[nH]c(CCCCCCCC[n+]3cccc4ccccc43)cc2c1 [Compound 407] | – | % Inhibition [2, 4]: 24.14%
57 | FC(F)(F)c1ccc2cc(CCCCCCCC[n+]3cccc4ccccc43)[nH]c2c1 [Compound 401] | – | % Inhibition [2, 4]: 14.26%
58 | C[N+](C)(C)c1ccc(CC(=O)OCCCCCCCCOc2ccccc2C(=O)Nc2ccccc2)cc1 [Compound 1074] | – | IC50 [2]: 30 µM; inhibition at 200 µM [2]: 91%
59 | O=[N+]([O-])c1cc([N+](=O)[O-])c2[nH]c(CCC[n+]3ccc4ccccc4c3)cc2c1 [Compound 522] | – | % Inhibition [2, 4]: 35.74%
60 | C[n+]1ccc(C(=O)OCCCCc2cc3cc(C(=O)c4ccccc4)ccc3[nH]2)cc1 [Compound 910] | – | % Inhibition ([2]; compound at 0.25 mM): 88.5%
61 | COc1ccc2[nH]c(CCCCCC[n+]3ccc4ccccc4c3)cc2c1 [Compound 591] | – | % Inhibition [2, 4]: 18.59%
62 | CCCCc1ccc2[nH]c(CCCC[n+]3ccccc3)cc2c1 [Compound 313] | – | % Inhibition ([2]; compound at 0.1 mM (Table 314)): 27.37%
63 | O=[N+]([O-])c1ccc2c(ccn2CCCCCCCC[n+]2ccccc2)c1 [Compound 6] | – | % Inhibition [2, 4]: 5.67%
64 | O=C(OCCCCCCCn1ccc2ccccc21)c1cccnc1 [Compound 944] | – | % Inhibition ([2]; compound at 0.05 mM): 2.06%
65 | C[n+]1ccc(C(=O)OCCCCCCCCc2cc3cc(C(=O)c4ccccc4)ccc3[nH]2)cc1 [Compound 912] | – | % Inhibition ([2]; compound at 0.25 mM): 27.6%
66 | C[N+](C)(C)c1ccc(CC(=O)OCCCCCCCCOc2ccccc2C(N)=O)cc1 [Compound 1080] | – | IC50 [2]: 100 µM; inhibition at 200 µM [2]: 83%
67 | C[n+]1cccc(C(=O)OCCCCCCCn2ccc3ccccc32)c1 [Compound 968] | – | % Inhibition [2, 4]: 88.52%
68 | O=C(OCCCCCCCCOc1ccc(N2C(=O)c3ccccc3C2=O)cc1)c1cccnc1 [Compound 1017] | – | % Inhibition [2, 3]: 23%
69 | c1ccc(C(c2ccccc2)(c2ccccc2)c2ccc3[nH]c(CCCC[n+]4ccccc4)cc3c2)cc1 [Compound 337] | – | % Inhibition ([2]; compound at 0.1 mM (Table 314)): 35.94%
70 | CCCCc1ccc2[nH]c(CCC[n+]3cccc4ccccc43)cc2c1 [Compound 420] | – | % Inhibition [2, 4]: 9.16%
71 | COC(=O)C=Cc1cn(CCCCC[n+]2cccc(C(=O)OC)c2)c2ccccc12 [Compound 268] | – | % Inhibition [2, 4]: 11.23%
72 | CC(=O)c1ccc(OCCCCCCCCOC(=O)Cc2ccc([N+](C)(C)C)cc2)cc1 [Compound 1078] | – | IC50 [2]: 123 µM; inhibition at 200 µM [2]: 68%
